Data reported in patent publication US12371454B2, “Cyclic peptide compound having Kras inhibitory action” (priority 2019, dated 2025).
Starred links: 1 amine or outer side, 2 acyl side, 3 side chain; linkers in the order of their positions; H or OH if unused. Positions of bridges follow the written chain, without caps; N, C: chain ends. Non-standard residues stand in square brackets, D forms with d. Residues, ends and D or L forms follow the SMILES beside them. *: point of attachment. hPhe(3-Cl-4-CF3) = N[C@@H](CCc1ccc(C(F)(F)F)c(Cl)c1)C(=O)O; hPhe(3-F,4-CF3) = N[C@@H](CCc1ccc(C(F)(F)F)c(F)c1)C(=O)O; Pro(cis-4-Ph) = O=C(O)[C@@H]1C[C@H](c2ccccc2)CN1; 3Oxa8azabicyclo(3.2.1)octane = C1CC2COCC1N2*; NMePhe(4-F) = CN[C@@H](Cc1ccc(F)cc1)C(=O)O; NMedβ3hAla = C[C@H](CC(=O)[*:2])N(C)[*:1]; NMeGly(cPent) = CN[C@H](C(=O)O)C1CCCC1; NMeGly(cBu) = CN[C@H](C(=O)O)C1CCC1; NMeCha = CN[C@@H](CC1CCCCC1)C(=O)O; NMeChg = CN[C@H](C(=O)O)C1CCCCC1; NMeI = CC[C@H](C)[C@H](NC)C(=O)O; NMeD = CN[C@@H](CC(=O)O)C(=O)O; NMeL = CN[C@@H](CC(C)C)C(=O)O; NMehSer = CN[C@@H](CCO)C(=O)O; NMeV = CN[C@H](C(=O)O)C(C)C; Trifluoroethyl = FC(F)(F)C*; d(β3hA) = C[C@@H](N)CC(=O)O; NMeS = CN[C@@H](CO)C(=O)O; Pip = O=C(O)[C@@H]1CCCCN1; NMeA = CN[C@@H](C)C(=O)O; Piperidide = C1CCN(*)CC1; Ac5c = NC1(C(=O)O)CCCC1; Aze = O=C(O)[C@@H]1CCN1; Sar = CNCC(=O)O; Propyl = CCC*

These compounds were tested on Human pancreatic cancer cell line AsPC-1 (assay: Measurement of AsPC-1 cell growth inhibition (AsPC-1 CGI)). Details: 96 h.
Format: cell-based
Description: Measurement of AsPC-1 Cell Growth Inhibition (AsPC-1 CGI)
Test compounds were serially diluted with dimethyl sulfoxide, and 200 nL was then dispensed to a U-bottom 96-well plate using Labcyte Echo. Human pancreatic cancer cell line AsPC-1 was suspended in RPMI-1640 medium supplemented with 15% fetal bovine serum to prepare a cell suspension at 1000 cells/100 μL. The cell suspension was dispensed to a plate containing a test compound at 100 μL per well and incubated at 37° C. in a 5% carbon dioxide gas incubator. 96 hours later, 80 μL of CellTiter-Glo (Promega) was added to each well and […] was measured.
Work on `CC[C@H](C)[C@@H]1NC(=O)[C@H](CC(C)C)N(C)C(=O)C[C@@H](C)N(C)C(=O)[C@H](C2CCCC2)N(C)C(=O)C2(CCCC2)NC(=O)[C@@H]2CCCN2C(=O)[C@H](CCc2ccc(C(F)(F)F)c(F)c2)NC(=O)CN(C)C(=O)[C@H](C2CCCC2)N(C)C(=O)[C@@H]2CCN2C(=O)[C@H](C)N(C)C1=O` [Compound 386] (cyclo([Ac5c][NMeGly(cPent)][NMedβ3hAla][NMeL]I[NMeA][Aze][NMeGly(cPent)][Sar][hPhe(3-F,4-CF3)]P)) yielded an IC50 of 20 to 50 nM.
In the case of `CC[C@H](C)[C@@H]1NC(=O)[C@H](COCC(F)(F)F)N(C)C(=O)C[C@@H](C(=O)N2CCCCC2)N(C)C(=O)[C@H](C(C)C)N(C)C(=O)C2(CCCC2)NC(=O)[C@@H]2CCCN2C(=O)[C@H](CCc2ccc(C(F)(F)F)c(Cl)c2)NC(=O)CN(C)C(=O)[C@H](CC2CCCCC2)N(C)C(=O)[C@@H]2CCN2C(=O)[C@H](C)N(C)C1=O` [Compound 387] ([NMeS](Trifluoroethyl)I[NMeA][Aze][NMeCha][Sar][hPhe(3-Cl-4-CF3)]P[Ac5c][NMeV][NMeD]-Piperidide; lactam N-11), the IC50 is reported as 100 to 500 nM.
Compound `CC[C@H](C)[C@@H]1NC(=O)[C@H](CC(C)C)N(C)C(=O)C[C@@H](C(=O)N2CCCCC2)N(C)C(=O)[C@H](C2CCCC2)N(C)C(=O)C2(CCCC2)NC(=O)[C@@H]2CCCN2C(=O)[C@H](CCc2ccc(C(F)(F)F)c(Cl)c2)NC(=O)CN(C)C(=O)[C@H](Cc2ccc(F)cc2)N(C)C(=O)[C@@H]2CCN2C(=O)[C@H](C)N(C)C1=O` [Compound 388] ([NMeL]I[NMeA][Aze][NMePhe(4-F)][Sar][hPhe(3-Cl-4-CF3)]P[Ac5c][NMeGly(cPent)][NMeD]-Piperidide; lactam N-11) has an IC50 of 20 to 50 nM.
In the case of `CC[C@H](C)[C@@H]1NC(=O)[C@H](CCOC)N(C)C(=O)C[C@@H](C(=O)N2CCCCC2)N(C)C(=O)[C@H](C(C)C)N(C)C(=O)C2(CCCC2)NC(=O)[C@@H]2CCCN2C(=O)[C@H](CCc2ccc(C(F)(F)F)c(Cl)c2)NC(=O)CN(C)C(=O)[C@H](CC2CCCCC2)N(C)C(=O)[C@@H]2CCN2C(=O)[C@H](C)N(C)C1=O` [Compound 397] ([NMehSer](Me)I[NMeA][Aze][NMeCha][Sar][hPhe(3-Cl-4-CF3)]P[Ac5c][NMeV][NMeD]-Piperidide; lactam N-11), the IC50 is reported as 100 to 500 nM.
Work on `CCCOC[C@H]1C(=O)N(C)CC(=O)N[C@@H](CCc2ccc(C(F)(F)F)c(F)c2)C(=O)N2CCC[C@H]2C(=O)NC2(CCCC2)C(=O)N(C)[C@@H]([C@@H](C)CC)C(=O)N(C)[C@H](C(=O)N2C3CCC2COC3)CC(=O)N(C)[C@@H](CC(C)C)C(=O)N[C@@H]([C@@H](C)CC)C(=O)N(C)[C@@H](C)C(=O)N2CC[C@H]2C(=O)N1C` [Compound 408] ([NMeL]I[NMeA][Aze][NMeS](Propyl)[Sar][hPhe(3-F,4-CF3)]P[Ac5c][NMeI][NMeD]-{3Oxa8azabicyclo(3.2.1)octane}; lactam N-11) yielded an IC50 of 50 to 100 nM.
With `CC[C@H](C)[C@@H]1NC(=O)[C@H](CC(C)C)N(C)C(=O)C[C@@H](C(=O)N2CCCCC2)N(C)C(=O)[C@H]([C@@H](C)CC)N(C)C(=O)C2(CCCC2)NC(=O)[C@@H]2CCCN2C(=O)[C@H](CCc2ccc(C(F)(F)F)c(F)c2)NC(=O)CN(C)C(=O)[C@H](CC2CCCCC2)N(C)C(=O)[C@@H]2CCN2C(=O)[C@H](C)N(C)C1=O` [Compound 409] ([NMeL]I[NMeA][Aze][NMeCha][Sar][hPhe(3-F,4-CF3)]P[Ac5c][NMeI][NMeD]-Piperidide; lactam N-11) the IC50 was 50 to 100 nM.
For `CC[C@H](C)[C@@H]1NC(=O)[C@H](CC(C)C)N(C)C(=O)C[C@@H](C)NC(=O)[C@H](C(C)C)N(C)C(=O)C2(CCCC2)NC(=O)[C@@H]2CCCN2C(=O)[C@H](CCc2ccc(C(F)(F)F)c(Cl)c2)NC(=O)CN(C)C(=O)[C@H](CC2CCCCC2)N(C)C(=O)[C@@H]2CCN2C(=O)[C@@H]2CCCCN2C1=O` [Compound 416] (cyclo([Ac5c][NMeV][d(β3hA)][NMeL]I[Pip][Aze][NMeCha][Sar][hPhe(3-Cl-4-CF3)]P)), the IC50 was 100 to 500 nM.
`CC[C@H](C)[C@@H]1NC(=O)[C@H](CC(C)C)N(C)C(=O)C[C@@H](C(=O)N2CCCCC2)N(C)C(=O)[C@H](C2CCCCC2)N(C)C(=O)C2(CCCC2)NC(=O)[C@@H]2C[C@H](c3ccccc3)CN2C(=O)[C@H](CCc2ccc(C(F)(F)F)c(Cl)c2)NC(=O)CN(C)C(=O)[C@H](CC2CCCCC2)N(C)C(=O)CN(C)C(=O)CN(C)C1=O` [Compound 428] ([NMeL]I[Sar][Sar][NMeCha][Sar][hPhe(3-Cl-4-CF3)][Pro(cis-4-Ph)][Ac5c][NMeChg][NMeD]-Piperidide; lactam N-11) gave an IC50 of 100 to 500 nM.
`CC[C@H](C)[C@@H]1NC(=O)[C@H](CC(C)C)N(C)C(=O)C[C@@H](C(=O)N2CCCCC2)N(C)C(=O)[C@H](C(C)C)N(C)C(=O)C2(CCCC2)NC(=O)[C@@H]2CCCN2C(=O)[C@H](CCc2ccc(C(F)(F)F)c(Cl)c2)NC(=O)CN(C)C(=O)[C@H](C2CCC2)N(C)C(=O)[C@@H]2CCN2C(=O)[C@H](C)N(C)C1=O` [Compound 446] ([NMeL]I[NMeA][Aze][NMeGly(cBu)][Sar][hPhe(3-Cl-4-CF3)]P[Ac5c][NMeV][NMeD]-Piperidide; lactam N-11) was tested, and the IC50 was 100 to 500 nM.
